Experimental data published in ChEMBL document CHEMBL3132769, “Fragment growing to retain or alter the selectivity of anchored kinase hinge-binding fragments” (Medchemcomm, 2014).

Columns and labels:
Homo sapiens = species on record: Homo sapiens; assay: Inhibition of human P70S6K catalytic domain expressed in baculovirus assessed as substrate phosphorylation using fluorescence-labelled peptides as substrate at 0.2 uM after 90 mins by microfluidic peptide phosphorylation assay
[1] = biological target: T1, Mitogen-activated protein kinase 12 (Homo sapiens) (UniProt P53778); assay: Inhibition of human full length p38 gamma expressed in Escherichia coli cell assessed as substrate phosphorylation using fluorescence-labelled peptides as substrate at 9 uM after 90 mins by microfluidic peptide phosphorylation assay
T1 sequence (whole entry): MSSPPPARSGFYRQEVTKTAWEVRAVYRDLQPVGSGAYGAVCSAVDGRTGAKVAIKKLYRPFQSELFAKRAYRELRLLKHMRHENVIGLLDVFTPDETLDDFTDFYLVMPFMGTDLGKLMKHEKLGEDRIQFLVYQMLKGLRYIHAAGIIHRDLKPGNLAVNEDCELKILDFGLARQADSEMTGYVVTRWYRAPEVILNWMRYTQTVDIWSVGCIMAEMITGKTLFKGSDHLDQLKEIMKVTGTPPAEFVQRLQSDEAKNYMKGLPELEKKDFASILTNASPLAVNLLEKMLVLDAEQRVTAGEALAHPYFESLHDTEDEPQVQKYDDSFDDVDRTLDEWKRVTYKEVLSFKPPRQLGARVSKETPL

[2] = biological target: Proto-oncogene tyrosine-protein kinase Src (Homo sapiens) (UniProt P12931); assay: Inhibition of human full length SRC expressed in baculovirus assessed as substrate phosphorylation using fluorescence-labelled peptides as substrate at 2 uM after 90 mins by microfluidic peptide phosphorylation assay
[3] = tested on: Tyrosine-protein kinase ABL1 (Homo sapiens), P00519 [T315I]; assay: Inhibition of human truncated ABL T315I mutant expressed in baculovirus assessed as substrate phosphorylation using fluorescence-labelled peptides as substrate at 2 uM after 90 mins by microfluidic peptide phosphorylation assay
[4] = biological target: Epidermal growth factor receptor (Homo sapiens) (UniProt P00533); assay: Inhibition of human EGFR catalytic domain expressed in baculovirus assessed as substrate phosphorylation using fluorescence-labelled peptides as substrate at 0.1 uM after 90 mins by microfluidic peptide phosphorylation assay
[5] = biological target: Tyrosine-protein kinase BTK (Homo sapiens) (UniProt Q06187); conditions: 0.1 uM
Description: Inhibition of human full length BTK expressed in baculovirus assessed as substrate phosphorylation using fluorescence-labelled peptides as substrate at 0.1 uM after 90 mins by microfluidic peptide phosphorylation assay

[6] = biological target: Mitogen-activated protein kinase 1 (Homo sapiens) (UniProt P28482); assay: Inhibition of human full length ERK2 expressed in Escherichia coli cell assessed as substrate phosphorylation using fluorescence-labelled peptides as substrate at 95 uM after 90 mins by microfluidic peptide phosphorylation assay
[7] = biological target: T2, Protein kinase C epsilon type (Homo sapiens) (UniProt Q02156); assay: Inhibition of human truncated PKC epsilon expressed in baculovirus assessed as substrate phosphorylation using fluorescence-labelled peptides as substrate at 0.06 uM after 90 mins by microfluidic peptide phosphorylation assay
T2 sequence (whole entry): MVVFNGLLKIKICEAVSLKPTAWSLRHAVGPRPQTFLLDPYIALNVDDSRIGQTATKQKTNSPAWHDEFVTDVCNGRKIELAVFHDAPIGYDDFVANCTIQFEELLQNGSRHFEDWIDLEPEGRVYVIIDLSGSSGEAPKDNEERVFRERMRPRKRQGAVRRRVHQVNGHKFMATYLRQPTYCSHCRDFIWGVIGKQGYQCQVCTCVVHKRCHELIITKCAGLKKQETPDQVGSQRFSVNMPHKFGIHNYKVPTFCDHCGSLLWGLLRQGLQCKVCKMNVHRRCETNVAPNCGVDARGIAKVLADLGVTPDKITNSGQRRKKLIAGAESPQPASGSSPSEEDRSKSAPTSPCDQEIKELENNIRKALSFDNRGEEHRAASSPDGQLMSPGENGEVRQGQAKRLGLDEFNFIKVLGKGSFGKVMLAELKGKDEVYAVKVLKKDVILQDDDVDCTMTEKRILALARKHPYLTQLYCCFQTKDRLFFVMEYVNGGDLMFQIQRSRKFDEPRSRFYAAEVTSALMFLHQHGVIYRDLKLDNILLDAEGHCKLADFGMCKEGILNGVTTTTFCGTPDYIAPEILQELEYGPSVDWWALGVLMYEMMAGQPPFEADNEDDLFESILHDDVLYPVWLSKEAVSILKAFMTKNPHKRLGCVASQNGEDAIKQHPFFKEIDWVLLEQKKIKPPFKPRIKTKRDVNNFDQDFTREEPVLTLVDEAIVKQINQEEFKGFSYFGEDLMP

[8] = biological target: Tyrosine-protein kinase Lyn (Homo sapiens) (UniProt P07948); assay: Inhibition of human full length LYN expressed in baculovirus assessed as substrate phosphorylation using fluorescence-labelled peptides as substrate at 0.06 uM after 90 mins by microfluidic peptide phosphorylation assay
[9] = biological target: Serine/threonine-protein kinase MARK1 (Homo sapiens) (UniProt Q9P0L2); assay: Inhibition of human full length MARK1 expressed in baculovirus assessed as substrate phosphorylation using fluorescence-labelled peptides as substrate at 0.06 uM after 90 mins by microfluidic peptide phosphorylation assay
[10] = biological target: T3, Serine/threonine-protein kinase BRSK1 (Homo sapiens) (UniProt Q8TDC3); assay: Inhibition of human full length BRSK1 expressed in baculovirus assessed as substrate phosphorylation using fluorescence-labelled peptides as substrate at 0.06 uM after 90 mins by microfluidic peptide phosphorylation assay
T3 sequence (whole entry): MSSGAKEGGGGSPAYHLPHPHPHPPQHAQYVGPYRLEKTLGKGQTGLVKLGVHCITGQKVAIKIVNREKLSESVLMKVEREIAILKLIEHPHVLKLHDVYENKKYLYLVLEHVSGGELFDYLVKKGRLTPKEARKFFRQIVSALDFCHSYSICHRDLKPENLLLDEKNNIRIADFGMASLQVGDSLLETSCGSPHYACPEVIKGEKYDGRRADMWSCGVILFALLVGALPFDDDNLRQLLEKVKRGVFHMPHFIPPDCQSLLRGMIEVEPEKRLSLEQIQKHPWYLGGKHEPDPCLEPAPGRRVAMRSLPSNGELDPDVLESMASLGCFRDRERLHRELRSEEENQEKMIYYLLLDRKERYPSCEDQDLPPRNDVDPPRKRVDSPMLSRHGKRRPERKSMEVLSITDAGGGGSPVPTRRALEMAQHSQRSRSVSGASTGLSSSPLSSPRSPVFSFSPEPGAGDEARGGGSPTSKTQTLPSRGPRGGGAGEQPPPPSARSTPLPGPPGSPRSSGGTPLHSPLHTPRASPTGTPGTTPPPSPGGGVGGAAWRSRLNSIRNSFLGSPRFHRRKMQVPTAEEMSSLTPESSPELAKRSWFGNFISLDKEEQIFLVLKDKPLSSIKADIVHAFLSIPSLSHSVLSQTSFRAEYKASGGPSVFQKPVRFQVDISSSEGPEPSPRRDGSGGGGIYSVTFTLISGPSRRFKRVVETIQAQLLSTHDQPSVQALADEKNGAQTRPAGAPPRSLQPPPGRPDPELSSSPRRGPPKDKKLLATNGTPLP

[11] = biological target: Protein kinase C alpha type (Homo sapiens) (UniProt P17252); assay: Inhibition of human truncated PKC alpha expressed in baculovirus assessed as substrate phosphorylation using fluorescence-labelled peptides as substrate at 1000 uM after 90 mins by microfluidic peptide phosphorylation assay

Sequence of Tyrosine-protein kinase Lyn (Homo sapiens) (P07948 2-512 limits assumed): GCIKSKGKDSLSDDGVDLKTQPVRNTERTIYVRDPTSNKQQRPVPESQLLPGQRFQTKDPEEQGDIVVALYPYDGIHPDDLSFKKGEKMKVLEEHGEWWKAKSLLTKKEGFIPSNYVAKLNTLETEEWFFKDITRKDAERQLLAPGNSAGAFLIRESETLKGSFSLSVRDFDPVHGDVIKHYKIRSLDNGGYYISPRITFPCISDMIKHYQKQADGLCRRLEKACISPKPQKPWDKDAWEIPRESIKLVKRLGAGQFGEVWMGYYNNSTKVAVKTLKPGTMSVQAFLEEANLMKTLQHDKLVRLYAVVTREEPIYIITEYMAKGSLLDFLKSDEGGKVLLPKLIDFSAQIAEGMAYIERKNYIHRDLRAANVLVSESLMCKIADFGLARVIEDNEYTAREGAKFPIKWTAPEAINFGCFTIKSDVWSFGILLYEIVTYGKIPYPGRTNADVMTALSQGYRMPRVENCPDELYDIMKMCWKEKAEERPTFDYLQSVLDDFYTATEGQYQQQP
Sequence of Serine/threonine-protein kinase MARK1 (Homo sapiens) (Q9P0L2 whole entry, looked up): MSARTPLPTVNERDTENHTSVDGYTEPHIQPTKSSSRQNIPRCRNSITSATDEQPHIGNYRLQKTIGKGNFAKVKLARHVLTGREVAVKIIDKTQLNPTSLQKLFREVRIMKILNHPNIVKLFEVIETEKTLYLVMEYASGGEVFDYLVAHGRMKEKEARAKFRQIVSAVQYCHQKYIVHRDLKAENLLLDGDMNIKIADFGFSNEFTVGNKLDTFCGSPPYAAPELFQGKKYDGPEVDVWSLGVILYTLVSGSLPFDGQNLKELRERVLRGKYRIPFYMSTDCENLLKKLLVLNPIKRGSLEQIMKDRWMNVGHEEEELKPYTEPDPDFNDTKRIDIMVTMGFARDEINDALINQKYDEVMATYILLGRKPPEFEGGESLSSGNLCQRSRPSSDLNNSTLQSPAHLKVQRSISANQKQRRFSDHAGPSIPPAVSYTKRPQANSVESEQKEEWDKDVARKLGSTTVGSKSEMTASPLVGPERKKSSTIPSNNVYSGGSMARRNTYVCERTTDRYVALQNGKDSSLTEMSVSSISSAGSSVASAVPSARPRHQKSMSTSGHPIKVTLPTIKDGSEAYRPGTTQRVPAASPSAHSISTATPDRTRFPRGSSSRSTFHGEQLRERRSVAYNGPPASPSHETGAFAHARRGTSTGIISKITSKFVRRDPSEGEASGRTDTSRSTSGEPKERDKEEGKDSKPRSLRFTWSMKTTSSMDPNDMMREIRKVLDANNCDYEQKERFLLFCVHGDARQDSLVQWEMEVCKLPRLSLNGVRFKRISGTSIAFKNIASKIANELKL
Sequence of Epidermal growth factor receptor (Homo sapiens) (P00533 whole entry, the tested form may be a part): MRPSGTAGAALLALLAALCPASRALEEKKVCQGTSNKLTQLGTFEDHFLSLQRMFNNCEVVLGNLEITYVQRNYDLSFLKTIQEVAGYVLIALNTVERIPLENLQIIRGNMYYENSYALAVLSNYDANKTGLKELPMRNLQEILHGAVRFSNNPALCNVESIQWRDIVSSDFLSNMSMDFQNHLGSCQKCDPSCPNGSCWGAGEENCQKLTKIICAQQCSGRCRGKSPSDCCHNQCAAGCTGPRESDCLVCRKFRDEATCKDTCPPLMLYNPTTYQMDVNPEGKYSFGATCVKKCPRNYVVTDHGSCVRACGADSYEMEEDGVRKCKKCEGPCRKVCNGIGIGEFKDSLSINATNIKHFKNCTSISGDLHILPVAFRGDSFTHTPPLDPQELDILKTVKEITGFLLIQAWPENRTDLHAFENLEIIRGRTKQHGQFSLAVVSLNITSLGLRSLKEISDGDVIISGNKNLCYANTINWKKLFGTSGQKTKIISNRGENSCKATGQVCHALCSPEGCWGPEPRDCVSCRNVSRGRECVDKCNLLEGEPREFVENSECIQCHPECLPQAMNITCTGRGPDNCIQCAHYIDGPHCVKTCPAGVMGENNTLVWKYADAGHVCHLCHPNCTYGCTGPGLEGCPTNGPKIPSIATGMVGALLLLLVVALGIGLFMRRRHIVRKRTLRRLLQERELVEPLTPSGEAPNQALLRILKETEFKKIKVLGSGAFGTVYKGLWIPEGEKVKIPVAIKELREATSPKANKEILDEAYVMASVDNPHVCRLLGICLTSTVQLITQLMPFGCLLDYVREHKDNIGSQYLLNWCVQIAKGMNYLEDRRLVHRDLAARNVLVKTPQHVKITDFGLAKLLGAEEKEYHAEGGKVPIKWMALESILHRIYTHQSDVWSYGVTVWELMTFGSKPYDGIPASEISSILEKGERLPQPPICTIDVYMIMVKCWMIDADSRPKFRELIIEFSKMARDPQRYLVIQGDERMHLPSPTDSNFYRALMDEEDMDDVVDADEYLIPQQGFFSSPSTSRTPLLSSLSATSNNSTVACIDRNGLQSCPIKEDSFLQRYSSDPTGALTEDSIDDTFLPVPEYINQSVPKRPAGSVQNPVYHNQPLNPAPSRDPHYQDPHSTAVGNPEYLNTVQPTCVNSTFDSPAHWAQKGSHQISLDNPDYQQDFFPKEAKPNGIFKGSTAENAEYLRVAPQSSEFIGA
Sequence of Mitogen-activated protein kinase 1 (Homo sapiens) (P28482 whole entry, the tested form may be a part): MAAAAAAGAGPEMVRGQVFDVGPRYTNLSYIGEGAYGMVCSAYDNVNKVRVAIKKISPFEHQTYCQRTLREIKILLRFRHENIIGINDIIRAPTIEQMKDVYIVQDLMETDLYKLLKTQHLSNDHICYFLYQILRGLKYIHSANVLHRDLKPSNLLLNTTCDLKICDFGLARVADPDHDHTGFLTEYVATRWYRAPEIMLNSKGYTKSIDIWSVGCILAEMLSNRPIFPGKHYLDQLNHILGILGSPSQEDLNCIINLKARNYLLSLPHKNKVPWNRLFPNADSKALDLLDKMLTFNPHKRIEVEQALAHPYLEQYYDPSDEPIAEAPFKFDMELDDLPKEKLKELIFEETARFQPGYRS
Sequence of Tyrosine-protein kinase BTK (Homo sapiens) (Q06187 whole entry): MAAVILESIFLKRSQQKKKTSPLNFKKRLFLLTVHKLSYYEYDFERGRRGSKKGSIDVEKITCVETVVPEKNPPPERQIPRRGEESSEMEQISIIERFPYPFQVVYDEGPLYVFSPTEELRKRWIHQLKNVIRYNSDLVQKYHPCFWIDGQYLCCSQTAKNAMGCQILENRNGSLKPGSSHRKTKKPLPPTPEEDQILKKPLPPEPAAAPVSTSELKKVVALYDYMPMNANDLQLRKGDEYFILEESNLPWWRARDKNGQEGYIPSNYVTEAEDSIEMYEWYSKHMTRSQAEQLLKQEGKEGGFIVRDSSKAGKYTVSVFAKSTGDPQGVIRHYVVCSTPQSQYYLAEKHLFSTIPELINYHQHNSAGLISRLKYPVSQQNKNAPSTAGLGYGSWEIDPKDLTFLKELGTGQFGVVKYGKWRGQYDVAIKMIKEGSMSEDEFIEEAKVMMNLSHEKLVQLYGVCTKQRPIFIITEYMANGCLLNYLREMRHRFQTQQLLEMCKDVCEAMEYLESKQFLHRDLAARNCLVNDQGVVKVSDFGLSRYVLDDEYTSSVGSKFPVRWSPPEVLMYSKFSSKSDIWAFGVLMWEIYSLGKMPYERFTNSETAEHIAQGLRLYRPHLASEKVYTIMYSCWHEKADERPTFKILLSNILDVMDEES
Sequence of Proto-oncogene tyrosine-protein kinase Src (Homo sapiens) (P12931 2-536 limits assumed): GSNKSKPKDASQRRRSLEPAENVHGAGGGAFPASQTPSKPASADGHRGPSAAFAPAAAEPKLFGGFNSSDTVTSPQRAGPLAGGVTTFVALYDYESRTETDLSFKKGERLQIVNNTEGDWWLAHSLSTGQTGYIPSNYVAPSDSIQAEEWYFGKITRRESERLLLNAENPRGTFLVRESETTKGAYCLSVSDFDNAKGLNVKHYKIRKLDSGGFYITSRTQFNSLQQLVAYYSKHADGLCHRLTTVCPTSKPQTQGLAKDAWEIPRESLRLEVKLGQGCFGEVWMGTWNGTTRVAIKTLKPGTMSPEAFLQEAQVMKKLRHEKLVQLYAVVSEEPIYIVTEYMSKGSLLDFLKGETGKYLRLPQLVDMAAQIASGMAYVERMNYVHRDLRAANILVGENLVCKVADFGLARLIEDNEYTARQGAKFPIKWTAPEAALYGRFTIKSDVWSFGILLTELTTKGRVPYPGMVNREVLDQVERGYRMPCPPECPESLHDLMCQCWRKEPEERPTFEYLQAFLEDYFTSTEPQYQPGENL

Q: For `Clc1ccc(C2(c3ccc(-c4ncnc5[nH]cnc45)cc3)CCNCC2)cc1`, which inhibition (Homo sapiens) is on record?
A: 87.5%

Q: With `NCC1CN(c2ncnc3[nH]c4cnccc4c23)CCO1` (configuration not stated) as the compound, how does the inhibition [1] read?
A: 4.5%

Q: Which results are given for `NC1CCN(c2ncnc3[nH]ccc23)CC1`?
A: inhibition [2]: 0%; inhibition [3]: 1%

Q: `C[C@H](CN(C)C)Oc1nc(Nc2cc3cccc(Cl)c3cn2)cnc1C#N` was tested. Which inhibition [4] did it give?
A: 0.5%

Q: What about the inhibition [5] of the same compound?
A: 0%

Q: For `NCCc1ccc(-c2ncnc3[nH]cnc23)cc1`, which inhibition [6] is on record?
A: 55.5%

Q: `NC1(Cc2ccc(Cl)cc2)CCN(c2ncnc3[nH]ccc23)CC1` was tested. Which inhibition [7] did it give?
A: 1.5%

Q: What about the inhibition [8] of the same compound?
A: 0%

Q: And the inhibition [9]?
A: 4.5%

Q: What about the inhibition [10] of the same compound?
A: 0%

Q: With `c1cnc2[nH]ccc2c1` as the compound, how does the inhibition [11] read?
A: 43%
